Laboratory results reported in publication PMC6718736, “Validation of in vitro methods for human cytochrome P450 enzyme induction: Outcome of a multi-laboratory study” (Toxicology in Vitro, 2019).
Structures can show the parent of a compound that is named as a salt. Where two headings read alike, the source gives them in different places.

Tests used:
[1] = system: CYP1A2; assay: CYP1A2 enzyme induction assay in cryopreserved HepaRG cells (phenacetin probe, LC/MS); format: in vitro ADME, human; conditions: for Assigned classification CYP1A2: HepaRG; for Assigned classification CYP1A2: key: 1=Positive=inducer; 0=Negative=non-inducer
[2] = system: CYP2B6; assay: CYP2B6 enzyme induction assay in cryopreserved HepaRG cells (bupropion probe, LC/MS); format: in vitro ADME, human; conditions: for Prediction in vivo inducer: Cmax/F2 >0.5 criterion; for Assigned classification CYP2B6: HepaRG; for Assigned classification CYP2B6: key: 1=Positive=inducer; 0=Negative=non-inducer
[3] = system: CYP3A4; assay: CYP3A4 enzyme induction assay in cryopreserved HepaRG cells (midazolam probe, LC/MS); format: in vitro ADME, human; conditions: for Assigned classification CYP3A4: HepaRG; for Assigned classification CYP3A4: key: 1=Positive=inducer; 0=Negative=non-inducer
[4] = system: CYP1A2; assay: CYP1A2 enzyme induction assay in cryopreserved primary human hepatocytes (PHH); format: in vitro ADME; conditions: for Assigned classification CYP1A2: PHH;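 for Assigned classification CYP1A2: code 1 means positive inducer and 0 means non-inducer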
[5] = system: CYP2B6; assay: CYP2B6 enzyme induction assay in cryopreserved primary human hepatocytes (PHH); format: in vitro ADME; conditions: for Assigned classification CYP2B6: PHH;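 for Assigned classification CYP2B6: code 1 means positive inducer and 0 means non-inducer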
[6] = system: CYP1A2; conditions: CYP1A2, human; ref Table 1; cited from earlier work
[7] = cited from earlier work
[8] = system: CYP; conditions: CYP isoforms induced; ref Abadie et al. (2009), Richert et al. (2010), Preissner et al. (2010), Hoffmann et al. (2014); cited from earlier work
[9] = system: CYP2B6; conditions: cited from earlier work
[10] = system: CYP3A4; conditions: CYP3A4, human in vivo reference classification (Table 11); cited from earlier work
[11] = system: CYP3A4; assay: CYP3A4 enzyme induction assay in cryopreserved primary human hepatocytes (PHH); conditions: for Assigned classification CYP3A4: PHH

Prediction in vivo inducer ([1]; CYP1A2, HepaRG cells, Cmax/F2 >0.5 criterion): No | Induction in vitro ([1]; CYP1A2, HepaRG cells, positive in one batch in each of the three laboratories): No | Assigned classification CYP1A2 ([1]; Lab 1, batch 20): 0 | Assigned classification CYP1A2 ([1]; Lab 1, batch 35): 0 | Assigned classification CYP1A2 ([1]; Lab 1, batch 36): 0 | Assigned classification CYP1A2 ([1]; Lab 2, batch 20): 0 | Assigned classification CYP1A2 ([1]; Lab 2, batch 35): 0 | Assigned classification CYP1A2 ([1]; Lab 2, batch 36): 0 | Assigned classification CYP1A2 ([1]; Lab 3, batch 20): 1 | Assigned classification CYP1A2 ([1]; Lab 3, batch 35): 0 | Assigned classification CYP1A2 ([1]; Lab 3, batch 36): 0 | Prediction in vivo inducer ([2]; CYP2B6, HepaRG cells, listed as Sotalol): No | Prediction in vivo inducer ([2]; CYP2B6, HepaRG cells, listed as sotalol): correctly predicted | Induction in vitro ([2]; CYP2B6, HepaRG cells, positive in one batch in each of the three laboratories): No | Assigned classification CYP2B6 ([2]; Lab 1, batch 20): 0 | Assigned classification CYP2B6 ([2]; Lab 1, batch 35): 0 | Assigned classification CYP2B6 ([2]; Lab 1, batch 36): 0 | Assigned classification CYP2B6 ([2]; Lab 2, batch 20): 0 | Assigned classification CYP2B6 ([2]; Lab 2, batch 35): 0 | Assigned classification CYP2B6 ([2]; Lab 2, batch 36): 0 | Assigned classification CYP2B6 ([2]; Lab 3, batch 20): 0 | Assigned classification CYP2B6 ([2]; Lab 3, batch 35): 0 | Assigned classification CYP2B6 ([2]; Lab 3, batch 36): 0 | Induction in vitro ([3]; CYP3A4, HepaRG cells): No | Prediction in vivo inducer ([3]; CYP3A4, HepaRG cells): No | Assigned classification CYP3A4 ([3]; Lab 1, batch 20): 0 | Assigned classification CYP3A4 ([3]; Lab 1, batch 35): 0 | Assigned classification CYP3A4 ([3]; Lab 1, batch 36): 0 | Assigned classification CYP3A4 ([3]; Lab 2, batch 20): 0 | Assigned classification CYP3A4 ([3]; Lab 2, batch 35): 0 | Assigned classification CYP3A4 ([3]; Lab 2, batch 36): 0 | Assigned classification CYP3A4 ([3]; Lab 3, batch 20): 0 | Assigned classification CYP3A4 ([3]; Lab 3, batch 35): 0 | Assigned classification CYP3A4 ([3]; Lab 3, batch 36): 0 | Prediction in vivo inducer ([4]; CYP1A2, PHH, Cmax/F2 >0.5 criterion): No | Induction in vitro ([4]; CYP1A2, PHH, positive in one donor in each of the three laboratories): No | Assigned classification CYP1A2 ([4]; Lab 1, batch 0 6 A): 0 | Assigned classification CYP1A2 ([4]; Lab 1, batch 4 0 8): 0 | Assigned classification CYP1A2 ([4]; Lab 1, batch 8 0 8): 0 | Assigned classification CYP1A2 ([4]; Lab 2, batch 0 6 A): 0 | Assigned classification CYP1A2 ([4]; Lab 2, batch 4 0 8): 0 | Assigned classification CYP1A2 ([4]; Lab 2, batch 8 0 8): 0 | Assigned classification CYP1A2 ([4]; Lab 3, batch 0 6 A): 0 | Assigned classification CYP1A2 ([4]; Lab 3, batch 4 0 8): 0 | Assigned classification CYP1A2 ([4]; Lab 3, batch 8 0 8): 0 | Induction in vitro ([5]; CYP2B6, PHH): No | Prediction in vivo inducer ([5]; CYP2B6, PHH): No | Prediction in vivo inducer ([5]; CYP2B6, PHH, Cmax/F2 >0.5 criterion): negative | Assigned classification CYP2B6 ([5]; Lab 1, batch 0 6 A): 0 | Assigned classification CYP2B6 ([5]; Lab 1, batch 4 0 8): 0 | Assigned classification CYP2B6 ([5]; Lab 1, batch 8 0 8): 0 | Assigned classification CYP2B6 ([5]; Lab 2, batch 0 6 A): 0 | Assigned classification CYP2B6 ([5]; Lab 2, batch 4 0 8): 0 | Assigned classification CYP2B6 ([5]; Lab 2, batch 8 0 8): 0 | Assigned classification CYP2B6 ([5]; Lab 3, batch 0 6 A): 1 | Assigned classification CYP2B6 ([5]; Lab 3, batch 4 0 8): 0 | Assigned classification CYP2B6 ([5]; Lab 3, batch 8 0 8): 0 | Induction in vitro ([11]; CYP3A4, PHH): No | Prediction in vivo inducer ([11]; CYP3A4, PHH): No | Assigned classification CYP3A4 ([11]; Lab 1, batch 0 6 A): 0 | Assigned classification CYP3A4 ([11]; Lab 1, batch 4 0 8): 0 | Assigned classification CYP3A4 ([11]; Lab 1, batch 8 0 8): 0 | Assigned classification CYP3A4 ([11]; Lab 2, batch 0 6 A): 0 | Assigned classification CYP3A4 ([11]; Lab 2, batch 4 0 8): 0 | Assigned classification CYP3A4 ([11]; Lab 2, batch 8 0 8): 0 | Assigned classification CYP3A4 ([11]; Lab 3, batch 0 6 A): 0 | Assigned classification CYP3A4 ([11]; Lab 3, batch 4 0 8): 0 | Assigned classification CYP3A4 ([11]; Lab 3, batch 8 0 8): 0
Structure (SMILES): CC(C)NCC(O)c1ccc(NS(C)(=O)=O)cc1 (stereo not drawn) [Sotalol hydrochloride]
Induction in vivo [6]: No | Cmax ([7]; human in vivo plasma concentration, normal dose): 2000 nM | Cmax ([7]; human in vivo, normal dose (Table 10)): 2000 nM | CYP induction in vitro (human hepatocytes) [8]: No | Induction in vivo ([9]; CYP2B6, human in vivo reference classification): No | Induction in vivo ([9]; CYP2B6, human, ref Table 1): No | Induction in vivo [10]: No
